Tests used:
[1] = test system: subjects with a diagnosis of MDD; test: HDRS17 / HAM-D6 depression ratings, diphenhydramine and placebo-controlled study (Example 2); format: in vivo, human; settings: for Mean HAM-D6, change from baseline / mean HDRS17 anxiety/somatization factor score, change from baseline / Mean Adjusted HDRS17 (sleep items removed), change from baseline / Total HDRS17 mean score, change from baseline: Day 11; for Mean Adjusted HDRS17 (sleep items removed), change from baseline / Total HDRS17 mean score, change from baseline: q.d. in the evening
Text: (§1) Men and women with a diagnosis of MDD between the ages of 18 and 64, inclusive, were enrolled.
(§2) (once daily) in the evening over 10 days for women of child bearing potential (WOCBP) or 4 weeks for males and women of non-child bearing potential (WONCBP). […] Males and WONCBP took 1 capsule every evening just before bedtime from Day 1 to Day 28. WOCBP took 1 capsule every evening just before bedtime from Day 1 to Day 10. There were 2 follow up visits occurring at 3 and 14 days.
(§3) For the evaluation of symptoms of depression, assessments were done at screening and during the study. Specifically, symptoms of depression were performed using the Mini International Neuropsychiatric Interview (MINI) 6.0 interview, or Hamilton rating scale for Depression-17 (HDRS17). Also, polysomnography (PSG) was performed to quantify sleep stages including latency to persistent sleep (LSP) and total sleep time (TST). Thereafter, symptoms of depression were taking on days 11 and 29 during treatment and days 3 and 14 following treatment. PSG was recorded overnight after the first and tenth dose administration of study medication.
A HDRS17 total score was calculated by summing the 17 item scores taken during the study. A HDRS17 total score ranges from 0 to 52, with higher scores indicating greater severity of depression. In order to correct for a possible effect of study medication on sleep, sleep-related items were removed from the HDRS17 to calculate a (sleep item)-adjusted HDRS. Accordingly, an adjusted HDRS17 total score was calculated by summing the item scores excluding the 3 insomnia questions (4-Insomnia Early, 5-Insomnia Middle and 6-Insomnia Late). A HDRS17 adjusted total score ranges from 0 to 46. A 6-item subscale from the HDRS17 (HAM-D6) was analyzed and provided information to core depressive symptoms and is sensitive to treatment response. The six items included depressed mood, guilt feelings, work and interests, psychomotor retardation, psychic anxiety, and general somatics (tiredness and pains).
The HAM-D6 score was calculated by summing the 6 items scores, and ranges from 0 to 22. Higher scores indicate greater severity of core symptoms.

[2] = test system: subjects with a diagnosis of MDD; test: Polysomnography (TST, LPS) in MDD study (Example 2); format: in vivo, human; settings: for LPS compared to placebo / TST compared to placebo: overnight on Day 1/2
Text: as §1, §2, §3
The effects of study medication on polysomnography (PSG)-derived parameters was evaluated overnight on Days 1/2 and 10/11. In addition, PSG was recorded up to and following a forced wake overnight on Day 5/6. Two screening PSG recordings were made and baseline values were calculated as the average values recorded at Screening 1 and 2.
TST is defined as total minutes spent in rapid eye movement (REM) and non-REM sleep.
LPS is defined as the elapsed time (in minutes) from lights out to 10 minutes of continuous sleep.

[3] = test system: subjects diagnosed with MDD; test: HDRS17 / HAM-D6 ratings, Group 1 monotherapy (Example 3); format: in vivo, human
Description: (§4) Specifically, Compound A was administered to subjects diagnosed with MDD (i) as a monotherapy and (ii) in combination with a known anti-depressant and the symptoms of depression of the subjects evaluated using the HDRS17 and HAM-D6 scale
(§5) Each subject in Group 2 also took an amount of antidepressant selected from duloxetine, citalopram, paroxetine, or sertraline and as prescribed by their attending physician. For the evaluation of symptoms of depression for both groups, assessments were independently performed at screening and on Day 11, i.e., one day after the study, using HDRS17 and HAM-D6 as described in Example 2. In Tables 11-12, # denotes the Cohen effect size, * denotes P<0.05 (statistically significant), and ** denotes P<0.01.

[4] = test system: subjects diagnosed with MDD; test: HDRS17 / HAM-D6 ratings, Group 2 adjunctive to antidepressant (Example 3); format: in vivo, human
Description: as §4, §5

[5] = Plasma pharmacokinetics after single 20 mg oral dose of suspension or tablet formulation (Example 1); format: in vivo, Human
Description: This example was performed to determine the plasma pharmacokinetic (PK) and bioavailability of a solid dose formulation of [5(4,6-dimethyl-pyrimidin-2-yl)-hexahydro-pyrrolo[3,4-c]pyrrol-2-yl]-(2-fluoro-2-[1,2,3]triazol-2-yl-phenyl)-methanone (Compound A) after single dose tablet administration relative to a suspension formulation. Also addressed are the effect of a semi-fasted condition on the rate and extent of bioavailability of the solid dose formulation and tolerability of the solid and oral suspension formulations.
During each treatment period, blood samples were collected for PK measurements. Specifically, venous blood samples of 3 mL each were collected for determination of Compound plasma concentrations. The following plasma Compound A PK parameters were estimated using the actual times of blood sampling: • Cmax peak plasma concentration. • tmax time to reach the peak plasma concentration. • AUClast area under the plasma concentration-time curve from 0 to t hours post study drug dosing, calculated by trapezoidal summation (time t is the time of the last quantifiable concentration Clast). • AUC∞ AUClast extrapolated to infinity, calculated as AUClast+Clast/λz. • λz elimination rate constant, determined by linear regression of the terminal points of the ln-linear plasma concentration-time curve. • t1/2 terminal half-life, defined as 0.693/λz. • CL/F total clearance of drug after extravascular administration, uncorrected for absolute bioavailability, calculated as Dose/AUC∞. • Vd/F apparent volume of distribution after extravascular administration, uncorrected for absolute bioavailability.
Samples were prepared for testing using the following protocol: • (i) Plasma samples at room temperature were homogenized. • (ii) The samples were centrifuged for 5 minutes at about 2500×g and 20° C. • (iii) The plasma sample (50.0 μL) was pipetted into a 1.2 mL round well collection plate. • (iv) Stock Dilution Solvent (50.0 μL) was added to the blanks and the internal standard working solution was added to all other tube. […]

[6] = Posology: plasma pharmacokinetics after oral 20 mg and repeated nighttime administration (Example 2); format: in vivo, human
Description: Blood and saliva were collected for the assessment of biomarkers, among others. Venous blood samples (3 mL each) were collected in fasting condition between 8:00 and 10:00 am for the determination of [5(4,6-dimethyl-pyrimidin-2-yl)-hexahydro-pyrrolo[3,4-c]pyrrol-2-yl]-(2-fluoro-2-[1,2,3]triazol-2-yl-phenyl)-methanone plasma concentrations and biomarkers related to immune system activity, Hypothalamus pituitary adrenal (HPA) axis activation, neurotropic factors and metabolic factors were measured. Pharmacokinetic (PK) blood samples also were collected. Plasma samples were analyzed to determine concentrations of Compound A using LC-MS/MS. Saliva was collected for the measurement of concentrations of cortisol. Saliva concentrations of cortisol were added as a biomarker.
as §2
The magnitude of the effect of Compound A on LPS and TST is directly related to level of insomnia at baseline. See, FIGS. 12-15.

orexin-2 receptor = biological target: T1, orexin-2 receptor (Homo sapiens, UniProt O43614); test: Orexin-2 receptor antagonism (statement); settings: orally active
T1 sequence (O43614 1-444): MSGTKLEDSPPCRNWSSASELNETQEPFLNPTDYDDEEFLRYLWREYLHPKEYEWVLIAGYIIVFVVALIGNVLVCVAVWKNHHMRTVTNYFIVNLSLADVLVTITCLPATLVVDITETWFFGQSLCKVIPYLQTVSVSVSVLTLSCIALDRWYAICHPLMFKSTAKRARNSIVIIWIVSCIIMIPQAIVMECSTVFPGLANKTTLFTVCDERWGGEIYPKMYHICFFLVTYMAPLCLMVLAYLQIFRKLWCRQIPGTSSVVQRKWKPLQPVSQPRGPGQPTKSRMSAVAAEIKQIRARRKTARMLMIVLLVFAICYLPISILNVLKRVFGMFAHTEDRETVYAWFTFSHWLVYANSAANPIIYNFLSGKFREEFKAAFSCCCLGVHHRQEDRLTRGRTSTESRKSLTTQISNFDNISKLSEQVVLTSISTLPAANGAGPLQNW

healthy subjects = test: Daytime administration in healthy subjects (statement); format: in vivo, human
[7] = test system: subjects with insomnia disorder (ID); test: Nighttime administration in subjects with insomnia disorder (statement); format: in vivo, human
[8] = Group 2 (with antidepressant), Day 11

CN(C)CCOC(c1ccccc1)c1ccccc1 [Diphenhydramine, diphenhydramine, reference compound]
Mean HAM-D6, change from baseline [1]: −1.8 | mean HDRS17 anxiety/somatization factor score, change from baseline [1]: −0.9 | Mean Adjusted HDRS17 (sleep items removed), change from baseline [1]: −2.3 | Total HDRS17 mean score, change from baseline [1]: −4.1 | Latency to Persistent Sleep (LPS), change from baseline ([2]; Day 1/2): 6.7 min | Total Sleep Time (TST), change from baseline ([2]; Day 1/2): 28.3 min | Latency to Persistent Sleep (LPS), change from baseline ([2]; Day 10/11): 0.3 min | Total Sleep Time (TST), change from baseline ([2]; Day 10/11): 33.92 min | LPS compared to placebo [2]: modestly reduced LPS | TST compared to placebo [2]: increased TST | Adjusted HDRS mean score (SD), change from baseline ([3]; Group 1, Day 11): −2.1 (3.02) | Anxiety-Somatization Factor mean score (SD), change from baseline ([3]; Group 1, Day 11): −0.8 (1.17) | HAM-D6 mean score (SD), change from baseline ([3]; Group 1, Day 11): −1.7 (2.15) | HDRS17 mean score (SD), change from baseline ([3]; Group 1, Day 11): −4.2 (4.00) | Adjusted HDRS mean score (SD), change from baseline [4, 8]: −3.5 (0.71) | Anxiety-Somatization Factor mean score (SD), change from baseline [4, 8]: −1.5 (0.71) | HAM-D6 mean score (SD), change from baseline [4, 8]: −2.0 (1.41) | HDRS17 mean score (SD), change from baseline [4, 8]: −3.5 (0.71)

[5(4,6-dimethyl-pyrimidin-2-yl)-hexahydro-pyrrolo[3,4-c]pyrrol-2-yl]-(2-fluoro-2-[1,2,3]triazol-2-yl-phenyl)-methanone [Compound A]
mean t1/2 ([5]; 20 mg oral suspension, fasted): ~2 h | mean t1/2 ([5]; 20 mg tablet, fasting condition): ~5 h | mean t1/2 ([5]; 20 mg tablet, semi-fasted): ~2 h | accumulation on repeated daily dosing ([6]; nighttime administration, 10 days daily): did not result in accumulation | half-life ([6]; oral 20 mg): 2 to 3 h | time to maximal plasma concentrations (Tmax) ([6]; oral 20 mg): < 1 h | antidepressant effect compared to placebo and diphenhydramine ([1]; 20 mg q.d. in the evening): larger and clinically relevant | Mean HAM-D6, change from baseline [1]: −3.8 | mean HDRS17 anxiety/somatization factor score, change from baseline [1]: −1.6 | Mean Adjusted HDRS17 (sleep items removed), change from baseline [1]: −4.5 | Total HDRS17 mean score, change from baseline [1]: −5.5 | antidepressant effect sustained after treatment discontinuation ([1]; after treatment discontinuation): at least 14 days | Latency to Persistent Sleep (LPS), change from baseline ([2]; Day 1/2): 8.7 min | Total Sleep Time (TST), change from baseline ([2]; Day 1/2): 30.9 min | Latency to Persistent Sleep (LPS), change from baseline ([2]; Day 10/11): 9.2 min | Total Sleep Time (TST), change from baseline ([2]; Day 10/11): 26.56 min | LPS compared to placebo [2]: modestly reduced LPS | TST compared to placebo [2]: increased TST | Adjusted HDRS Effect Size Compound A vs Placebo (Cohen effect size) ([3]; Group 1, Day 11): −0.93 | Adjusted HDRS mean score (SD), change from baseline ([3]; Group 1, Day 11): −4.3 (2.97)* | Anxiety-Somatization Factor Effect Size Compound A vs Placebo (Cohen effect size) ([3]; Group 1, Day 11): −0.51 | Anxiety-Somatization Factor mean score (SD), change from baseline ([3]; Group 1, Day 11): −1.6 (1.65) | HAM-D6 Effect Size Compound A vs Placebo (Cohen effect size) ([3]; Group 1, Day 11): −1.22 | HAM-D6 mean score (SD), change from baseline ([3]; Group 1, Day 11): −3.6 (2.33)** | HDRS17 Effect Size Compound A vs Placebo (Cohen effect size) ([3]; Group 1, Day 11): −0.64 | HDRS17 mean score (SD), change from baseline ([3]; Group 1, Day 11): −5.1 (3.97) | antidepressant efficacy as monotherapy ([3]; untreated subjects with MDD): has antidepressant efficacy | Adjusted HDRS Effect Size Compound A vs Placebo (Cohen effect size) [4, 8]: −1.06 | Adjusted HDRS mean score (SD), change from baseline [4, 8]: −5.5 (1.29) | Anxiety-Somatization Factor Effect Size Compound A vs Placebo (Cohen effect size) [4, 8]: −0.76 | Anxiety-Somatization Factor mean score (SD), change from baseline [4, 8]: −1.8 (0.50) | HAM-D6 Effect Size Compound A vs Placebo (Cohen effect size) [4, 8]: −1.49 | HAM-D6 mean score (SD), change from baseline [4, 8]: −4.8 (1.50) | HDRS17 Effect Size Compound A vs Placebo (Cohen effect size) [4, 8]: −0.37 | HDRS17 mean score (SD), change from baseline [4, 8]: −7.0 (3.37) | antidepressant efficacy as adjunctive therapy ([4]; antidepressant drug-treated subjects with MDD): has antidepressant efficacy | activity at orexin-2 receptor (orexin-2 receptor): selective antagonist | somnolence (healthy subjects): induced somnolence | latency to persistent sleep (LPS) [7]: reduced | total sleep time (TST) [7]: prolongs
